ChEMBL document CHEMBL1201862, “PubChem BioAssay data set” (2004)
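Each compound was tested at five concentrations against cells in 96-well plates for 48 hours. GI50 marks 50% less growth.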 Active and inactive are the calls of the source. Cut-off read from the data, not from the text of the source: active = GI50 up to about 1.1 µM and inactive = higher.

What was measured:
Assay in all cases: growth of human tumour cells (NCI), 48 h
[1] = tested on: PC-3
[2] = tested on: COLO 205
[3] = tested on: 786-0
[4] = tested on: ACHN
[5] = tested on: SNB-75
[6] = tested on: CAKI-1
[7] = tested on: SR
[8] = tested on: UACC-257
[9] = tested on: MOLT-4
[10] = tested on: MDA-N
[11] = tested on: DU-145
[12] = tested on: EKVX
[13] = tested on: M14
[14] = tested on: IGROV-1
[15] = tested on: MCF7
[16] = tested on: CCRF-CEM
[17] = tested on: SNB-19
[18] = tested on: SF-295
[19] = tested on: SK-MEL-5
[20] = tested on: SN12C
[21] = tested on: Malme-3M
[22] = tested on: HCC 2998
[23] = tested on: U-251
[24] = tested on: SF-268
[25] = tested on: NCI-H23
[26] = tested on: OVCAR-4
[27] = tested on: SK-OV-3
[28] = tested on: OVCAR-5
[29] = tested on: HOP-62
[30] = tested on: A498
[31] = tested on: RXF 393
[32] = tested on: OVCAR-8
[33] = tested on: SF-539
[34] = tested on: T47D
[35] = tested on: MDA-MB-435
[36] = tested on: MDA-MB-231
[37] = tested on: K562
[38] = tested on: OVCAR-3
[39] = tested on: NCI-H522
[40] = tested on: HT-29
[41] = tested on: NCI-H460
[42] = tested on: TK-10
[43] = tested on: A549
[44] = tested on: NCI/ADR-RES
[45] = tested on: UO-31
[46] = tested on: KM12
[47] = tested on: HCT-15
[48] = tested on: BT-549
[49] = tested on: UACC-62
[50] = tested on: SK-MEL-2
[51] = tested on: NCI-H226
[52] = tested on: HCT-116
[53] = tested on: Hs-578T
[54] = tested on: HL-60
[55] = tested on: HOP-92
[56] = tested on: RPMI-8226
[57] = tested on: SW-620
[58] = tested on: SK-MEL-28
[59] = tested on: LOX IMVI

O=C(/C=C1/Nc2ccc([N+](=O)[O-])cc2N/C1=C/C(=O)c1ccc(Cl)cc1)c1ccccc1
GI50 [1]: > 100 µM (inactive)
GI50 [2]: > 100 µM (inactive)
GI50 [3]: 48.3 µM (inactive)
GI50 [4]: > 100 µM (inactive)
GI50 [5]: 19.9 µM (inactive)
GI50 [6]: > 100 µM (inactive)
GI50 [7]: > 100 µM (inactive)
GI50 [8]: > 100 µM (inactive)
GI50 [9]: > 100 µM (inactive)
GI50 [10]: > 100 µM (inactive)
GI50 [11]: > 100 µM (inactive)
GI50 [12]: > 100 µM (inactive)
GI50 [13]: > 100 µM (inactive)
GI50 [14]: > 100 µM (inactive)
GI50 [15]: > 100 µM (inactive)
GI50 [16]: 64.7 µM (inactive)
GI50 [17]: 37 µM (inactive)
GI50 [18]: 23.4 µM (inactive)
GI50 [19]: > 100 µM (inactive)
GI50 [20]: > 100 µM (inactive)
GI50 [21]: > 100 µM (inactive)
GI50 [22]: > 100 µM (inactive)
GI50 [23]: 30.8 µM (inactive)
GI50 [24]: 30.4 µM (inactive)
GI50 [25]: 20.3 µM (inactive)
GI50 [26]: > 100 µM (inactive)
GI50 [27]: 58.7 µM (inactive)
GI50 [28]: > 100 µM (inactive)
GI50 [29]: 20.8 µM (inactive)
GI50 [30]: 35.6 µM (inactive)
GI50 [31]: 23.8 µM (inactive)
GI50 [32]: 72.4 µM (inactive)
GI50 [33]: 30.3 µM (inactive)
GI50 [34]: > 100 µM (inactive)
GI50 [35]: > 100 µM (inactive)
GI50 [36]: 35 µM (inactive)
GI50 [37]: 55.8 µM (inactive)
GI50 [38]: > 100 µM (inactive)
GI50 [39]: 12.6 µM (inactive)
GI50 [40]: > 100 µM (inactive)
GI50 [41]: 32 µM (inactive)
GI50 [42]: 59 µM (inactive)
GI50 [43]: > 100 µM (inactive)
GI50 [44]: 60.3 µM (inactive)
GI50 [45]: > 100 µM (inactive)
GI50 [46]: > 100 µM (inactive)
GI50 [47]: > 100 µM
GI50 [48]: > 100 µM (inactive)
GI50 [49]: 20.5 µM (inactive)
GI50 [50]: 19.9 µM (inactive)
GI50 [51]: > 100 µM (inactive)
GI50 [52]: 56.9 µM (inactive)

Cc1cc2ccccc2n2c1nc1ccccc12
GI50 [53]: > 100 µM (inactive)
GI50 [1]: > 100 µM (inactive)
GI50 [2]: > 100 µM (inactive)
GI50 [3]: > 100 µM (inactive)
GI50 [4]: > 100 µM (inactive)
GI50 [5]: > 100 µM (inactive)
GI50 [7]: > 100 µM (inactive)
GI50 [8]: > 100 µM (inactive)
GI50 [9]: > 100 µM (inactive)
GI50 [10]: > 100 µM (inactive)
GI50 [54]: > 100 µM (inactive)
GI50 [11]: > 100 µM (inactive)
GI50 [12]: > 100 µM (inactive)
GI50 [13]: > 100 µM (inactive)
GI50 [14]: > 100 µM (inactive)
GI50 [15]: > 100 µM (inactive)
GI50 [16]: > 100 µM (inactive)
GI50 [17]: > 100 µM (inactive)
GI50 [18]: > 100 µM (inactive)
GI50 [19]: > 100 µM (inactive)
GI50 [55]: > 100 µM (inactive)
GI50 [20]: > 100 µM (inactive)
GI50 [21]: > 100 µM (inactive)
GI50 [22]: > 100 µM (inactive)
GI50 [23]: > 100 µM (inactive)
GI50 [24]: > 100 µM (inactive)
GI50 [25]: > 100 µM (inactive)
GI50 [27]: > 100 µM (inactive)
GI50 [28]: > 100 µM (inactive)
GI50 [29]: > 100 µM (inactive)
GI50 [30]: 15.2 µM (inactive)
GI50 [31]: > 100 µM (inactive)
GI50 [32]: > 100 µM (inactive)
GI50 [56]: > 100 µM (inactive)
GI50 [33]: > 100 µM (inactive)
GI50 [34]: > 100 µM (inactive)
GI50 [35]: > 100 µM (inactive)
GI50 [57]: > 100 µM (inactive)
GI50 [37]: > 100 µM (inactive)
GI50 [38]: > 100 µM (inactive)
GI50 [40]: > 100 µM (inactive)
GI50 [41]: > 100 µM (inactive)
GI50 [42]: > 100 µM (inactive)
GI50 [43]: > 100 µM (inactive)
GI50 [44]: > 100 µM (inactive)
GI50 [45]: > 100 µM (inactive)
GI50 [46]: > 100 µM (inactive)
GI50 [47]: > 100 µM
GI50 [48]: > 100 µM (inactive)
GI50 [49]: > 100 µM (inactive)
GI50 [58]: > 100 µM (inactive)
GI50 [51]: > 100 µM (inactive)
GI50 [52]: > 100 µM (inactive)

COC(=O)/C=C1\C(CO[Si](C)(C)C(C)(C)C)OC(n2ccc(=O)[nH]c2=O)C1O (stereo not given)
GI50 [1]: 3.47 µM (inactive)
GI50 [2]: 4.26 µM (inactive)
GI50 [3]: 6.04 µM (inactive)
GI50 [4]: 12.6 µM (inactive)
GI50 [5]: 12.1 µM (inactive)
GI50 [6]: 22.6 µM (inactive)
GI50 [7]: 6.98 µM (inactive)
GI50 [8]: 4.73 µM (inactive)
GI50 [9]: 8.49 µM (inactive)
GI50 [10]: 7.67 µM (inactive)
GI50 [11]: 7.06 µM (inactive)
GI50 [12]: 8.63 µM (inactive)
GI50 [13]: 17.5 µM (inactive)
GI50 [14]: 20 µM (inactive)
GI50 [15]: 4.91 µM (inactive)
GI50 [16]: 6.27 µM (inactive)
GI50 [17]: 18.5 µM (inactive)
GI50 [18]: 9.82 µM (inactive)
GI50 [19]: 6.28 µM (inactive)
GI50 [55]: 15.2 µM (inactive)
GI50 [20]: 8.57 µM (inactive)
GI50 [22]: 7.71 µM (inactive)
GI50 [23]: 7.8 µM (inactive)
GI50 [24]: 0.367 µM (active)
GI50 [25]: 7.08 µM (inactive)
GI50 [26]: 15 µM (inactive)
GI50 [28]: 16.5 µM (inactive)
GI50 [29]: 13.2 µM (inactive)
GI50 [30]: 17.5 µM (inactive)
GI50 [31]: 9.84 µM (inactive)
GI50 [32]: 8.95 µM (inactive)
GI50 [59]: 6.41 µM (inactive)
GI50 [56]: 6.07 µM (inactive)
GI50 [33]: 15.5 µM (inactive)
GI50 [34]: 3.63 µM (inactive)
GI50 [35]: 8.13 µM (inactive)
GI50 [36]: 34.5 µM (inactive)
GI50 [57]: 9.73 µM (inactive)
GI50 [37]: 5.4 µM (inactive)
GI50 [38]: 21.6 µM (inactive)
GI50 [40]: 7.33 µM (inactive)
GI50 [41]: 5.9 µM (inactive)
GI50 [42]: 24.2 µM (inactive)
GI50 [43]: 6.35 µM (inactive)
GI50 [44]: 10.4 µM (inactive)
GI50 [45]: 9.89 µM (inactive)
GI50 [46]: 7.06 µM (inactive)
GI50 [47]: 6.71 µM
GI50 [48]: 18.7 µM (inactive)
GI50 [49]: 13.7 µM (inactive)
GI50 [58]: 6.25 µM (inactive)
GI50 [50]: 6.25 µM (inactive)
GI50 [51]: 5.58 µM (inactive)
GI50 [52]: 4.4 µM (inactive)

CC(C)(Br)C(Br)CCC1(C(Br)CBr)CO1 (stereo not given)
GI50 [1]: > 10 µM (inactive)
GI50 [2]: > 10 µM (inactive)
GI50 [3]: > 10 µM (inactive)
GI50 [4]: > 10 µM (inactive)
GI50 [5]: > 10 µM (inactive)
GI50 [6]: > 10 µM (inactive)
GI50 [7]: > 10 µM (inactive)
GI50 [9]: > 10 µM (inactive)
GI50 [10]: > 10 µM (inactive)
GI50 [54]: > 10 µM (inactive)
GI50 [11]: > 10 µM (inactive)
GI50 [12]: > 10 µM (inactive)
GI50 [13]: > 10 µM (inactive)
GI50 [14]: > 10 µM (inactive)
GI50 [15]: > 10 µM (inactive)
GI50 [16]: > 10 µM (inactive)
GI50 [17]: > 10 µM (inactive)
GI50 [18]: > 10 µM (inactive)
GI50 [19]: > 10 µM (inactive)
GI50 [55]: > 10 µM (inactive)
GI50 [20]: > 10 µM (inactive)
GI50 [22]: > 10 µM (inactive)
GI50 [23]: > 10 µM (inactive)
GI50 [24]: > 10 µM (inactive)
GI50 [25]: > 10 µM (inactive)
GI50 [26]: > 10 µM (inactive)
GI50 [27]: > 10 µM (inactive)
GI50 [28]: > 10 µM (inactive)
GI50 [29]: > 10 µM (inactive)
GI50 [30]: > 10 µM (inactive)
GI50 [31]: > 10 µM (inactive)
GI50 [32]: > 10 µM (inactive)
GI50 [56]: > 10 µM (inactive)
GI50 [33]: > 10 µM (inactive)
GI50 [34]: > 10 µM (inactive)
GI50 [35]: > 10 µM (inactive)
GI50 [36]: > 10 µM (inactive)
GI50 [57]: > 10 µM (inactive)
GI50 [37]: > 10 µM (inactive)
GI50 [38]: > 10 µM (inactive)
GI50 [39]: > 10 µM (inactive)
GI50 [40]: > 10 µM (inactive)
GI50 [42]: > 10 µM (inactive)
GI50 [43]: > 10 µM (inactive)
GI50 [45]: > 10 µM (inactive)
GI50 [46]: > 10 µM (inactive)
GI50 [48]: > 10 µM (inactive)
GI50 [49]: > 10 µM (inactive)
GI50 [58]: > 10 µM (inactive)
GI50 [51]: > 10 µM (inactive)
GI50 [52]: > 10 µM (inactive)
